Data on 14 substances can be found in patent publication US20230263822A1, “MODULATION OF FACTOR 11 EXPRESSION” (Ionis Pharmaceuticals, Inc., priority 2008, published 2023).

Strand notation (5' to 3'): a small letter for the sugar, then the base; units joined by * are phosphorothioate-linked, units joined directly phosphodiester-linked; [ ] holds rarer units or linkages, { } end groups; capitals alone tell only the bases. e = 2'-O-(2-methoxyethyl) (MOE); [5mC] = 5-methylcytosine; d = 2'-deoxy (DNA)

Data set [1] has as its system human Factor 11 mRNA. Description: Dose-dependent inhibition of human Factor 11 in HepG2 cells, lipofectin 9.375-75 nM (Example 4). In kind it is cell-based. Conditions: for percent inhibition of Factor 11 at 9.375 nM / percent inhibition of Factor 11 at 18.75 nM / percent inhibition of Factor 11 at 37.5 nM / percent inhibition of Factor 11 at 75 nM: relative to untreated control cells. In outline: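 HepG2 cells transfected via lipofectin with antisense oligonucleotide at 9.375, 18.75, 37.5 or 75 nM for about 16 h. Factor 11 mRNA quantified by real-time RT-PCR (primer probe set RTS 2966) and normalized to total RNA (RIBOGREEN). Results expressed as percent inhibition versus untreated cells.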

For data set [2], the system named is human Factor 11 mRNA. In words: Dose-dependent inhibition of human Factor 11 in HepG2 cells, electroporation 0.7-20 uM (Example 4). The class given is cell-based. Conditions: for percent inhibition of Factor 11 at 0.7 μM / percent inhibition of Factor 11 at 2.2 μM / percent inhibition of Factor 11 at 6.7 μM / percent inhibition of Factor 11 at 20 μM: relative to untreated control cells. In outline: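 HepG2 cells electroporated with antisense gapmers at 0.7, 2.2, 6.7 and 20 μM, treated ~16 h. Factor 11 mRNA quantified by qRT-PCR (primer probe set RTS 2966), normalised to RIBOGREEN total RNA; expressed as percent inhibition versus untreated control cells.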

Data set [3] deals with human Factor 11 mRNA. In words: Antisense inhibition of human Factor 11 in HepG2 cells, electroporation, 8,000 nM (Example 30). The class given is cell-based. Conditions: electroporation, 8,000 nM antisense oligonucleotide. The method, boiled down:
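HepG2 cells electroporated with 8,000 nM 5-10-5, 5-8-5 or 6-8-6 MOE gapmers (phosphorothioate, 5-methylcytidine), ~24 h. Factor 11 mRNA quantified by qRT-PCR, normalised to RIBOGREEN total RNA. Reported as percent inhibition versus untreated cells.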

Data set [4] can be described thus: Tolerability in Sprague-Dawley rats: kidney function, urine protein/creatinine (Example 35). Conditions: for Urine protein/creatinine ratio: Sprague Dawley rats; for BUN / Creatinine: Sprague-Dawley rats, plasma.
Method: A control group of four Sprague Dawley rats was injected subcutaneously with PBS twice per week for 6 weeks. Body weight measurements were taken before and throughout the treatment period. Urine samples were taken before the start of treatment. Three days after the last dose, urine samples were taken and the rats were sacrificed. Organ weights were measured and blood was collected for further analysis.
To evaluate the effect of kidney function, plasma concentrations of blood urea nitrogen (BUN) and creatinine were measured using an automated clinical chemistry analyzer (Hitachi Olympus AU400e, Melville, N.Y.).
The subject of a further data set is Factor 11 mRNA. In words: Factor 11 mRNA in cynomolgus monkey liver, day 55 (Example 46). In kind it is in vivo, cynomolgus monkeys. Conditions: for % inhibition of Factor 11 mRNA in liver relative to the PBS control: 25 mg/kg subcutaneously, primer probe set LTS00301; for Factor 11 mRNA in liver vs PBS control: cynomolgus monkeys, 25 mg/kg. As for the experimental part: Groups, each consisting of two male and two female monkeys, were injected subcutaneously with 25 mg/kg of ISIS 416850, ISIS 449709, ISIS 445522, ISIS 449710, ISIS 449707, ISIS 449711, ISIS 449708, 416858, and ISIS 445531. Antisense oligonucleotide was administered to the monkeys at 25 mg/kg three times per week for week 1 and 25 mg/kg twice per week for weeks 2 to 8. A control group, consisting of two male and two female monkeys was injected subcutaneously with PBS according to the same dosing regimen. Body weights were taken 14 days and 7 days before the start of treatment and were then measured weekly throughout the treatment period. Blood samples were collected 14 days and 5 days before the start of treatment and subsequently several times during the dosing regimen for PT and aPTT measurements, and measurement of various hematologic factors. On day 55, the monkeys were euthanized by exsanguination while under deep anesthesia, and organs harvested for further analysis.
On day 55, RNA was extracted from liver tissue for real-time PCR analysis of Factor 11 using primer probe set LTS00301. Results are presented as percent inhibition of Factor 11, relative to PBS control.

Setting [5] is: After treatment, 50 mg/kg s.c. twice per week for 6 weeks.
Where [6] appears, read: Before antisense oligonucleotide treatment.
[7] abbreviates: 50 mg/kg s.c. twice per week for 6 weeks.

Usually IC50 stands for the concentration at which inhibition is half-maximal. For the substance “416825 (antisense GCCCTTCATGTCTAGGTCCA; 5-10-5 gapmer, further chemistry not given here) [compound 416825]”, in the data set on human Factor 11 mRNA [1], the IC50 was 0.02 µM, the “percent inhibition of Factor 11 at 9.375 nM” value was 23%, the “percent inhibition of Factor 11 at 18.75 nM” value is recorded as 52% and the “percent inhibition of Factor 11 at 37.5 nM” value is reported as 73%. For the same substance, in the data set with human Factor 11 mRNA [1], the “percent inhibition of Factor 11 at 75 nM” value is 92%. For the same substance, in the data set with human Factor 11 mRNA [2], the midpoint of inhibition, the IC50, lay at 1.3 µM; the “percent inhibition of Factor 11 at 0.7 μM” value amounted to 27%; the “percent inhibition of Factor 11 at 2.2 μM” value is given as 74%; the “percent inhibition of Factor 11 at 6.7 μM” value came to 92%. The “percent inhibition of Factor 11 at 20 μM” value with human Factor 11 mRNA [2] is 98%. Besides, the “Percent inhibition of human Factor 11 mRNA levels” value in the data set with human Factor 11 mRNA [3] is listed as 90%. Also, the Urine protein/creatinine ratio in data set [4] (setting [5]) stood at 5.4. For the same substance, the Urine protein/creatinine ratio in data set [4] (setting [6]) is reported as 1.1.

As to “416850 (antisense TGCACAGTTTCTGGCAGGCC; 5-10-5 gapmer, further chemistry not given here) [compound 416850]”, in the data set with human Factor 11 mRNA [1], the IC50 came out at 0.029 µM, the “percent inhibition of Factor 11 at 9.375 nM” value is recorded as 4%, the “percent inhibition of Factor 11 at 18.75 nM” value turned out to be 30% and the “percent inhibition of Factor 11 at 37.5 nM” value came to 67%. In addition, in the data set with human Factor 11 mRNA [1], the “percent inhibition of Factor 11 at 75 nM” value is 84%. In addition, in the data set on human Factor 11 mRNA [2], the IC50 is 3.4 µM, the “percent inhibition of Factor 11 at 0.7 μM” value was determined as 14%, the “percent inhibition of Factor 11 at 2.2 μM” value amounted to 25% and the “percent inhibition of Factor 11 at 6.7 μM” value was determined as 81%. For the same substance, the “percent inhibition of Factor 11 at 20 μM” value in the data set on human Factor 11 mRNA [2] came to 91%. Moreover, the “Percent inhibition of human Factor 11 mRNA levels” value in the data set with human Factor 11 mRNA [3] is on record as 91%. Further, the “% inhibition of Factor 11 mRNA in liver relative to the PBS control” value in the data set with Factor 11 mRNA came out at 68%. In data set [4] (setting [5]), the Urine protein/creatinine ratio is listed as 4.0. The Urine protein/creatinine ratio in data set [4] (setting [6]) amounted to 1.0.

As to “416858 (antisense ACGGCATTGGTGCACAGTTT; 5-10-5 gapmer, further chemistry not given here) [compound 416858]”, in the data set on human Factor 11 mRNA [1], half-maximal inhibition (IC50) required 0.033 µM, the “percent inhibition of Factor 11 at 9.375 nM” value was 0%, the “percent inhibition of Factor 11 at 18.75 nM” value was 28% and the “percent inhibition of Factor 11 at 37.5 nM” value was 54%. Besides, in the data set on human Factor 11 mRNA [1], the “percent inhibition of Factor 11 at 75 nM” value was found to be 82%. For the same substance, in the data set with human Factor 11 mRNA [2], the midpoint of inhibition, the IC50, lay at 5.3 µM; the “percent inhibition of Factor 11 at 0.7 μM” value was found to be 5%; the “percent inhibition of Factor 11 at 2.2 μM” value was determined as 20%; the “percent inhibition of Factor 11 at 6.7 μM” value is on record as 56%. In the data set with human Factor 11 mRNA [2], the “percent inhibition of Factor 11 at 20 μM” value was 86%. Besides, the “Percent inhibition of human Factor 11 mRNA levels” value in the data set with human Factor 11 mRNA [3] was 90%. In addition, the “% inhibition of Factor 11 mRNA in liver relative to the PBS control” value in the data set with Factor 11 mRNA turned out to be 89%. In data set [4] (setting [5]), the Urine protein/creatinine ratio amounted to 4.4. Also, the Urine protein/creatinine ratio in data set [4] (setting [6]) amounted to 0.9.

“416864 (antisense GGCAGCGGACGGCATTGGTG; 5-10-5 gapmer, further chemistry not given here) [compound 416864]”: in the data set with human Factor 11 mRNA [1], it took 0.026 µM to reach half-maximal inhibition (IC50), the “percent inhibition of Factor 11 at 9.375 nM” value is given as 18%, the “percent inhibition of Factor 11 at 18.75 nM” value is on record as 43% and the “percent inhibition of Factor 11 at 37.5 nM” value is 62%. Also, in the data set on human Factor 11 mRNA [1], the “percent inhibition of Factor 11 at 75 nM” value is given as 78%. For the same substance, in the data set with human Factor 11 mRNA [2], the IC50 stood at 1.4 µM, the “percent inhibition of Factor 11 at 0.7 μM” value came out at 32%, the “percent inhibition of Factor 11 at 2.2 μM” value was found to be 65% and the “percent inhibition of Factor 11 at 6.7 μM” value is given as 78%. For the same substance, the “percent inhibition of Factor 11 at 20 μM” value in the data set on human Factor 11 mRNA [2] was 90%. In addition, the “Percent inhibition of human Factor 11 mRNA levels” value in the data set on human Factor 11 mRNA [3] is recorded as 88%. Moreover, the Urine protein/creatinine ratio in data set [4] (setting [5]) amounted to 4.0. For the same substance, in data set [4] (setting [6]), the Urine protein/creatinine ratio is on record as 1.2.

Regarding “445522 (antisense eG*e[5mC]*eA*e[5mC]*eA*dG*dT*dT*dT*d[5mC]*dT*dG*dG*e[5mC]*eA*eG*eG*e[5mC]) [compound 445522]”, the “Percent inhibition of human Factor 11 mRNA levels” value with human Factor 11 mRNA [3] amounted to 91%. Besides, the “% inhibition of Factor 11 mRNA in liver relative to the PBS control” value in the data set with Factor 11 mRNA is on record as 89%.

Take “445531 (antisense eG*eG*e[5mC]*eA*eT*dT*dG*dG*dT*dG*d[5mC]*dA*d[5mC]*eA*eG*eT*eT*eT) [compound 445531]”: the “Percent inhibition of human Factor 11 mRNA levels” value in the data set with human Factor 11 mRNA [3] amounted to 90%. In the data set with Factor 11 mRNA, the “% inhibition of Factor 11 mRNA in liver relative to the PBS control” value stood at 66%.

Regarding “ISIS 416850: MOE gapmer, nucleobases 1275 to 1318 of SEQ ID NO: 1 (Table 8) (antisense TGCACAGTTTCTGGCAGGCC; MOE gapmer, wing and gap sizes not given here)”, the “Factor 11 mRNA in liver vs PBS control” value in the data set with Factor 11 mRNA is “significant reduction of Factor 11 mRNA”. Moreover, in data set [4] (setting [7]), the BUN amounted to 5 mg/dL and the Creatinine came out at 7 mg/dL.

Turning to “ISIS 416858: MOE gapmer, nucleobases 1275 to 1318 of SEQ ID NO: 1 (Table 8) (antisense ACGGCATTGGTGCACAGTTT; MOE gapmer, wing and gap sizes not given here)”, the “Factor 11 mRNA in liver vs PBS control” value with Factor 11 mRNA was “significant reduction of Factor 11 mRNA”. In data set [4] (setting [7]), this substance gave a BUN of 8 mg/dL and a Creatinine of 4 mg/dL.

“ISIS 445522: 5-8-5 or 6-8-6 MOE microwalk gapmer (Table 44) (antisense eG*e[5mC]*eA*e[5mC]*eA*dG*dT*dT*dT*d[5mC]*dT*dG*dG*e[5mC]*eA*eG*eG*e[5mC])”: the “Factor 11 mRNA in liver vs PBS control” value in the data set with Factor 11 mRNA is on record as “significant reduction of Factor 11 mRNA”.

With “ISIS 445531: 5-8-5 or 6-8-6 MOE microwalk gapmer (Table 44) (antisense eG*eG*e[5mC]*eA*eT*dT*dG*dG*dT*dG*d[5mC]*dA*d[5mC]*eA*eG*eT*eT*eT)”, the “Factor 11 mRNA in liver vs PBS control” value in the data set on Factor 11 mRNA was “significant reduction of Factor 11 mRNA”.

As for “ISIS 449707: 3-8-3, 4-8-4, 2-10-2, 3-10-3 or 4-10-4 MOE microwalk gapmer (Table 46) (antisense e[5mC]*eA*e[5mC]*eA*dG*dT*dT*dT*d[5mC]*dT*dG*dG*e[5mC]*eA*eG*eG)”, the “Factor 11 mRNA in liver vs PBS control” value in the data set with Factor 11 mRNA was “significant reduction of Factor 11 mRNA”.

Regarding “ISIS 449708: 3-8-3, 4-8-4, 2-10-2, 3-10-3 or 4-10-4 MOE microwalk gapmer (Table 46) (antisense eA*e[5mC]*eA*dG*dT*dT*dT*d[5mC]*dT*dG*dG*e[5mC]*eA*eG)”, the “Factor 11 mRNA in liver vs PBS control” value in the data set on Factor 11 mRNA is on record as “significant reduction of Factor 11 mRNA”.

“ISIS 449709: 3-8-3, 4-8-4, 2-10-2, 3-10-3 or 4-10-4 MOE microwalk gapmer (Table 46) (antisense eG*e[5mC]*eA*e[5mC]*dA*dG*dT*dT*dT*d[5mC]*dT*dG*dG*d[5mC]*eA*eG*eG*e[5mC])”: the “Factor 11 mRNA in liver vs PBS control” value with Factor 11 mRNA was “significant reduction of Factor 11 mRNA”.

Turning to “ISIS 449710: 3-8-3, 4-8-4, 2-10-2, 3-10-3 or 4-10-4 MOE microwalk gapmer (Table 46) (antisense e[5mC]*eA*e[5mC]*dA*dG*dT*dT*dT*d[5mC]*dT*dG*dG*d[5mC]*eA*eG*eG)”, the “Factor 11 mRNA in liver vs PBS control” value in the data set on Factor 11 mRNA is given as “significant reduction of Factor 11 mRNA”.
